Measured values from ChEMBL document CHEMBL1201862, “PubChem BioAssay data set” (2004).
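Values below derive from 48-hour exposures of cells grown in 96-well plates, with endpoints linearly interpolated between the two concentrations bracketing the appropriate inhibition level. GI50 = concentration required for 50% inhibition of growth.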 The source made the active and inactive calls. Rule as the data show it: active = GI50 up to about 1.1 µM and inactive = higher.

Experiments:
Assay in all cases: NCI anticancer screen, dose series, 48 h
A549 = test system: A549
786-0 = test system: 786-0
HT-29 = test system: HT-29
SR = test system: SR
OVCAR-4 = test system: OVCAR-4
K562 = test system: K562
SF-539 = test system: SF-539
HCT-15 = test system: HCT-15
U-251 = test system: U-251
CAKI-1 = test system: CAKI-1
KM-20L2 = test system: KM-20L2
MOLT-4 = test system: MOLT-4
SK-MEL-28 = test system: SK-MEL-28
ACHN = test system: ACHN
HCT-116 = test system: HCT-116
HOP-92 = test system: HOP-92
SK-OV-3 = test system: SK-OV-3
SK-MEL-5 = test system: SK-MEL-5
HOP-62 = test system: HOP-62
MCF7 = test system: MCF7

Compound | GI50 (A549) | GI50 (786-0) | GI50 (HT-29) | GI50 (SR) | GI50 (OVCAR-4) | GI50 (K562) | GI50 (SF-539) | GI50 (HCT-15) [µM] | GI50 (U-251) | GI50 (CAKI-1) | GI50 (KM-20L2) | GI50 (MOLT-4) | GI50 (SK-MEL-28) | GI50 (ACHN) | GI50 (HCT-116) | GI50 (HOP-92) | GI50 (SK-OV-3) | GI50 (SK-MEL-5) | GI50 (HOP-62) | GI50 (MCF7)
O=C1Cc2ccccc2CCc2ccccc21 | > 100 µM (inactive) | > 100 µM (inactive) | > 100 µM (inactive) | > 100 µM (inactive) | > 100 µM (inactive) | 75.3 µM (inactive) | > 100 µM (inactive) | > 100 | > 100 µM (inactive) | > 100 µM (inactive) | > 100 µM (inactive) | > 100 µM (inactive) | > 100 µM (inactive) | > 100 µM (inactive) | > 100 µM (inactive) | 35.6 µM (inactive) | > 100 µM (inactive) | > 100 µM (inactive) | > 100 µM (inactive) | –
O=[N+]([O-])c1ccc(-c2ccc(C3=Nn4c(nnc4-c4ccc(Cl)cc4)SC3)o2)cc1 | 47.1 µM (inactive) | 31.4 µM (inactive) | > 100 µM (inactive) | > 100 µM (inactive) | > 100 µM (inactive) | > 100 µM (inactive) | > 100 µM (inactive) | > 92.5 | 37.1 µM (inactive) | > 100 µM (inactive) | > 100 µM (inactive) | > 100 µM (inactive) | > 100 µM (inactive) | 46.6 µM (inactive) | 45 µM (inactive) | 38.5 µM (inactive) | > 82.4 µM (inactive) | > 100 µM (inactive) | 31 µM (inactive) | –
NC(=O)CCC(NC(=O)Cc1ccccc1)C(=O)O (stereo not given) | > 2470 µM (inactive) | > 2470 µM (inactive) | > 2470 µM (inactive) | > 2470 µM (inactive) | 1390 µM (inactive) | > 2470 µM (inactive) | 1420 µM (inactive) | > 2470 | 2000 µM (inactive) | 1280 µM (inactive) | > 2470 µM (inactive) | > 2470 µM (inactive) | 1160 µM (inactive) | – | 1090 µM (inactive) | 1060 µM (inactive) | > 2470 µM (inactive) | > 2470 µM (inactive) | 1700 µM (inactive) | –
C/C(CCc1ccccc1)=N\NC(N)=S | > 100 µM (inactive) | > 100 µM (inactive) | 27.8 µM (inactive) | 75.2 µM (inactive) | > 100 µM (inactive) | > 100 µM (inactive) | 37.2 µM (inactive) | > 100 | > 100 µM (inactive) | > 100 µM (inactive) | > 100 µM (inactive) | 72.8 µM (inactive) | > 100 µM (inactive) | > 100 µM (inactive) | > 100 µM (inactive) | > 100 µM (inactive) | > 100 µM (inactive) | 95.3 µM (inactive) | > 100 µM (inactive) | –
CCOC(=O)C1=C(O)C(=O)c2c(OC)ccc(OC)c2C1=O | > 100 µM (inactive) | > 100 µM (inactive) | > 100 µM (inactive) | > 100 µM (inactive) | > 100 µM (inactive) | > 100 µM (inactive) | > 100 µM (inactive) | > 100 | > 100 µM (inactive) | > 100 µM (inactive) | > 100 µM (inactive) | > 100 µM (inactive) | > 100 µM (inactive) | > 100 µM (inactive) | > 100 µM (inactive) | > 100 µM (inactive) | > 100 µM (inactive) | > 100 µM (inactive) | > 100 µM (inactive) | –
Cn1cc(NC(=O)c2cc(NC(=O)CCCCCCCCCC(=O)Nc3cc(C(=O)Nc4cc(C(=O)NCCC(=N)N)n(C)c4)n(C)c3)cn2C)cc1C(=O)NCCC(=N)N | 18.7 µM (inactive) | 29.4 µM (inactive) | 20.7 µM (inactive) | – | 34.8 µM (inactive) | 14.3 µM (inactive) | 37.9 µM (inactive) | 39.3 | 27.4 µM (inactive) | 32 µM (inactive) | 31.2 µM (inactive) | 25.1 µM (inactive) | 11.9 µM (inactive) | 23.5 µM (inactive) | 24.5 µM (inactive) | 16.4 µM (inactive) | 92 µM (inactive) | 14.7 µM (inactive) | 24.5 µM (inactive) | –
CC1=C(NC(=O)/C(=N/NC(=S)NN)C2C(=O)CC(C)(C)CC2=O)C(=O)c2ccccc2C1=O | 9.4 µM (inactive) | 10.9 µM (inactive) | 11.1 µM (inactive) | 3.61 µM (inactive) | 13.7 µM (inactive) | 10.6 µM (inactive) | 3.6 µM (inactive) | 6 | 3.91 µM (inactive) | 20.7 µM (inactive) | 11.4 µM (inactive) | 4.07 µM (inactive) | 12.9 µM (inactive) | 13.3 µM (inactive) | 3.97 µM (inactive) | – | 19.8 µM (inactive) | 2.15 µM (inactive) | 16.1 µM (inactive) | –
COc1c(CC(C)=O)c2ccccc2n1C(C)=O | > 100 µM (inactive) | > 100 µM (inactive) | > 100 µM (inactive) | > 100 µM (inactive) | > 100 µM (inactive) | > 100 µM (inactive) | > 100 µM (inactive) | > 100 | > 100 µM (inactive) | > 100 µM (inactive) | > 100 µM (inactive) | > 100 µM (inactive) | > 100 µM (inactive) | > 100 µM (inactive) | > 100 µM (inactive) | > 100 µM (inactive) | > 100 µM (inactive) | – | > 100 µM (inactive) | –
COC1C2c3ccccc3C(C#N)(Cc3ccc4c(c32)OCO4)N1C(=O)c1ccccc1 (stereo not given) | – | 98.6 µM (inactive) | 48 µM (inactive) | 14.3 µM (inactive) | – | 5.11 µM (inactive) | > 100 µM (inactive) | 17.1 | 37.7 µM (inactive) | – | 43.1 µM (inactive) | 30.1 µM (inactive) | 90.8 µM (inactive) | 41.4 µM (inactive) | 37.6 µM (inactive) | > 100 µM (inactive) | 35.3 µM (inactive) | 3.76 µM (inactive) | 14.4 µM (inactive) | –
C/C(CC(=O)Nc1cccc(Cl)c1C)=N\NC(N)=S | > 100 µM (inactive) | > 100 µM (inactive) | > 100 µM (inactive) | – | – | > 100 µM (inactive) | > 100 µM (inactive) | – | > 100 µM (inactive) | – | > 100 µM (inactive) | > 100 µM (inactive) | > 100 µM (inactive) | – | > 100 µM (inactive) | 30.1 µM (inactive) | > 100 µM (inactive) | > 100 µM (inactive) | > 100 µM (inactive) | –
CN(CCO)c1nc(N)cc(=O)[nH]1 | > 100 µM (inactive) | > 100 µM (inactive) | > 100 µM (inactive) | > 100 µM (inactive) | – | > 100 µM (inactive) | > 100 µM (inactive) | > 100 | > 100 µM (inactive) | > 100 µM (inactive) | > 100 µM (inactive) | > 100 µM (inactive) | > 100 µM (inactive) | > 100 µM (inactive) | > 100 µM (inactive) | > 100 µM (inactive) | > 100 µM (inactive) | > 100 µM (inactive) | > 100 µM (inactive) | –
NNC(=O)CCC(=O)Nc1cc(Cl)c(Cl)cc1Cl | > 100 µM (inactive) | > 100 µM (inactive) | > 100 µM (inactive) | 0.607 µM (active) | 51.5 µM (inactive) | > 100 µM (inactive) | > 100 µM (inactive) | > 100 | > 100 µM (inactive) | > 100 µM (inactive) | > 100 µM (inactive) | 90.6 µM (inactive) | > 100 µM (inactive) | > 100 µM (inactive) | > 100 µM (inactive) | > 100 µM (inactive) | > 100 µM (inactive) | > 100 µM (inactive) | > 100 µM (inactive) | –
Cc1ccc(NC(=O)CC2C(=O)Nc3ccccc3S2(=O)=O)c(C)c1 (stereo not given) | 18.7 µM (inactive) | 18.3 µM (inactive) | 13.5 µM (inactive) | 1.8 µM (inactive) | 18.7 µM (inactive) | 4.66 µM (inactive) | 15.5 µM (inactive) | 8.32 | 12.7 µM (inactive) | 8.79 µM (inactive) | 13.8 µM (inactive) | 7.33 µM (inactive) | 17 µM (inactive) | 18 µM (inactive) | 12.2 µM (inactive) | 15 µM (inactive) | – | 4.78 µM (inactive) | – | –
CC1C[C@H](OC(N)=O)C(C)CC1=O (stereo not given in full) | > 100 µM (inactive) | > 100 µM (inactive) | > 100 µM (inactive) | – | > 100 µM (inactive) | > 100 µM (inactive) | > 100 µM (inactive) | > 100 | > 100 µM (inactive) | > 100 µM (inactive) | > 100 µM (inactive) | > 100 µM (inactive) | – | > 100 µM (inactive) | > 100 µM (inactive) | 30.2 µM (inactive) | > 100 µM (inactive) | > 100 µM (inactive) | > 100 µM (inactive) | –
O=C1C(c2ccc(Cl)cc2)=[N+]([O-])c2ccccc21 | 17.5 µM (inactive) | 16.9 µM (inactive) | 19.8 µM (inactive) | 20.2 µM (inactive) | – | 13.4 µM (inactive) | 21 µM (inactive) | 11.4 | 16.7 µM (inactive) | – | 25.4 µM (inactive) | 12.4 µM (inactive) | 14.9 µM (inactive) | 15.2 µM (inactive) | 14.4 µM (inactive) | – | > 100 µM (inactive) | 13.6 µM (inactive) | 29.4 µM (inactive) | –
C[C@@H]1C[C@@H](O)[C@]2(O)O[C@@H]3C[C@@]4(C=O)[C@@H](CC[C@@H]5[C@@H]4CC[C@]4(C)[C@@H](C6=CC(=O)OC6)CC[C@]54O)C[C@H]3O[C@@H]2O1 [CALACTIN] | 0.00439 µM (active) | 0.00617 µM (active) | 0.021 µM (active) | 0.00275 µM (active) | 0.0222 µM (active) | 0.0179 µM (active) | 0.00581 µM (active) | 0.0162 | 0.019 µM (active) | 0.01 µM (active) | 0.0182 µM (active) | 0.00188 µM (active) | 0.0288 µM (active) | 0.00283 µM (active) | 0.0102 µM (active) | 0.0276 µM (active) | 0.0118 µM (active) | 0.0101 µM (active) | 0.00671 µM (active) | 0.0335 µM (active)
